Measured values taken from PubChem BioAssay AID2060621 (Molecular Pharmacology Branch, DTP, NCI, 2025).
“And” between values parts separate entries of the source, which are not always exact repeats. Equal entries are not always repeated. One block for each compound: values may come before it.

Test system: 324938-238-R-J1-PDC complex spheroids viability
Assay: Anticancer human tumor 324938-238-R-J1-PDC patient-derived bladder carcinoma cell line growth inhibition [CLK]
Conditions: for viability, T/C: stronger effect = lower value
Method in brief: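 Multi-cell-type spheroids combined patient-derived tumor cells with HUVEC endothelial cells and human mesenchymal stem cells. Paired agents were dosed in half-log steps down from about clinical Cmax, or from 10 microM where Cmax was unknown.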

[1] = curve of first compound, second compound 0.0316 µM
[2] = curve of first compound, second compound 0.1 µM
[3] = curve of first compound, second compound 0.316 µM
[4] = curve of first compound, second compound 1 µM
[5] = curve of first compound, second compound 3.16 µM
[6] = curve of first compound, second compound 10 µM
[7] = second compound 0.0316 µM, first compound 0.0316 µM
[8] = second compound 0.0316 µM, first compound 0.1 µM
[9] = second compound 0.0316 µM, first compound 0.316 µM
[10] = second compound 0.0316 µM, first compound 1 µM
[11] = second compound 0.0316 µM, first compound 3.16 µM
[12] = second compound 0.0316 µM, first compound 10 µM
[13] = second compound 0.1 µM, first compound 0.0316 µM
[14] = second compound 0.1 µM, first compound 0.1 µM
[15] = second compound 0.1 µM, first compound 0.316 µM
[16] = second compound 0.1 µM, first compound 1 µM
[17] = second compound 0.1 µM, first compound 3.16 µM
[18] = second compound 0.1 µM, first compound 10 µM
[19] = second compound 0.316 µM, first compound 0.0316 µM
[20] = second compound 0.316 µM, first compound 0.1 µM
[21] = second compound 0.316 µM, first compound 0.316 µM
[22] = second compound 0.316 µM, first compound 1 µM
[23] = second compound 0.316 µM, first compound 3.16 µM
[24] = second compound 0.316 µM, first compound 10 µM
[25] = second compound 1 µM, first compound 0.0316 µM
[26] = second compound 1 µM, first compound 0.1 µM
[27] = second compound 1 µM, first compound 0.316 µM
[28] = second compound 1 µM, first compound 1 µM
[29] = second compound 1 µM, first compound 3.16 µM
[30] = second compound 1 µM, first compound 10 µM
[31] = second compound 3.16 µM, first compound 0.0316 µM
[32] = second compound 3.16 µM, first compound 0.1 µM
[33] = second compound 3.16 µM, first compound 0.316 µM
[34] = second compound 3.16 µM, first compound 1 µM
[35] = second compound 3.16 µM, first compound 3.16 µM
[36] = second compound 3.16 µM, first compound 10 µM
[37] = second compound 10 µM, first compound 0.0316 µM
[38] = second compound 10 µM, first compound 0.1 µM
[39] = second compound 10 µM, first compound 0.316 µM
[40] = second compound 10 µM, first compound 1 µM
[41] = second compound 10 µM, first compound 3.16 µM
[42] = second compound 10 µM, first compound 10 µM
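Further: viability read after seven days of drug exposure.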
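Wherever viability, T/C is given: 100% = DMSO vehicle control wells.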

IC50 (curve of compound): 159 nM and 223 nM
SMILES: O=c1[nH]cc(F)c(=O)[nH]1
viability, T/C (compound 0.0316 µM): 83.8% and 80.7% | viability, T/C (compound 0.1 µM): 66.9% and 79.9% | viability, T/C (compound 0.316 µM): 24.9% and 37% | viability, T/C (compound 1 µM): 19.4% and 26% | viability, T/C (compound 3.16 µM): 16.1% and 20.8% | viability, T/C (compound 10 µM): 16.1% and 20.9%

SMILES: C=C(F)C(=O)N1CCN(c2nc(OCC3CCCN3C)nc3c2CCN(c2cccc4cccc(Cl)c24)C3)CC1CC#N (stereo unspecified) + CN1CCN(c2cc(C(=O)Nc3cc4cc(-c5cnn(C)c5)ccc4cn3)ccn2)CC1
IC50 [1]: 3120 nM | IC50 [2]: 1560 nM | IC50 [3]: < 31.6 nM | IC50 [4]: < 31.6 nM | IC50 [5]: < 31.6 nM | IC50 [6]: < 31.6 nM | viability, T/C [7]: 75.2% | viability, T/C [8]: 88.7% | viability, T/C [9]: 81.8% | viability, T/C [10]: 78.8% | viability, T/C [11]: 49.6% | viability, T/C [12]: 2.48% | viability, T/C [13]: 60.9% | viability, T/C [14]: 64% | viability, T/C [15]: 57.3% | viability, T/C [16]: 53.3% | viability, T/C [17]: 43.3% | viability, T/C [18]: 2.19% | viability, T/C [19]: 25.4% | viability, T/C [20]: 26.9% | viability, T/C [21]: 22.3% | viability, T/C [22]: 24.5% | viability, T/C [23]: 19.6% | viability, T/C [24]: 0.24% | viability, T/C [25]: 2.43% | viability, T/C [26]: 1.75% | viability, T/C [27]: 2.24% | viability, T/C [28]: 1.87% | viability, T/C [29]: 0.88% | viability, T/C [30]: 0.23% | viability, T/C [31]: 0.21% | viability, T/C [32]: 0.19% | viability, T/C [33]: 0.24% | viability, T/C [34]: 0.17% | viability, T/C [35]: 0.33% | viability, T/C [36]: 0.12% | viability, T/C [37]: 0.34% | viability, T/C [38]: 0.23% | viability, T/C [39]: 0.23% | viability, T/C [40]: 0.35% | viability, T/C [41]: 0.2% | viability, T/C [42]: 0.2%

IC50 [1]: 169 nM | IC50 [2]: < 31.6 nM | IC50 [3]: < 31.6 nM | IC50 [4]: < 31.6 nM | IC50 [5]: < 31.6 nM | IC50 [6]: < 31.6 nM
SMILES: CC(Nc1ccc2c(c1)OCCn1cc(N3C(=O)OCC3C(F)F)nc1-2)C(N)=O (stereo unspecified) + CNC(=O)c1ccc(Nc2nc(OC3CCCC3)c3c(-c4ccc5nc(C)oc5c4)c[nH]c3n2)c(OC)c1
viability, T/C [7]: 78.8% | viability, T/C [8]: 52.5% | viability, T/C [9]: 42.1% | viability, T/C [10]: 35.5% | viability, T/C [11]: 22.2% | viability, T/C [12]: 15.3% | viability, T/C [13]: 32.2% | viability, T/C [14]: 28.1% | viability, T/C [15]: 25% | viability, T/C [16]: 21.1% | viability, T/C [17]: 20.2% | viability, T/C [18]: 13.6% | viability, T/C [19]: 14% | viability, T/C [20]: 10.9% | viability, T/C [21]: 9.84% | viability, T/C [22]: 9.27% | viability, T/C [23]: 6.34% | viability, T/C [24]: 5.89% | viability, T/C [25]: 13.4% | viability, T/C [26]: 12.3% | viability, T/C [27]: 8.46% | viability, T/C [28]: 6.86% | viability, T/C [29]: 5.9% | viability, T/C [30]: 4.88% | viability, T/C [31]: 13.1% | viability, T/C [32]: 9.57% | viability, T/C [33]: 9.31% | viability, T/C [34]: 7.44% | viability, T/C [35]: 7.17% | viability, T/C [36]: 4.87% | viability, T/C [37]: 14.4% | viability, T/C [38]: 9.66% | viability, T/C [39]: 9.38% | viability, T/C [40]: 7.73% | viability, T/C [41]: 7.48% | viability, T/C [42]: 4.64%
